This is an account of results in ChEMBL document CHEMBL1127184, “Preparation of the enantiomers of the analgesic E-3710” (1993).

What all share (type): functional
For assay [1], the system named is Mus musculus. Put plainly: Analgesic activity by writhing test in mice after peroral administration. The following applies: po. Background: In writhing tests, fewer writhes than in controls are read as antinociception.
Assay [2] deals with Mus musculus. Nature of the assay: Analgesic activity by writhing test in mice after intraveneous administration. The following applies: iv.
Assay [3] concerns Mus musculus. Nature of the assay: Analgesic activity by writhing test in mice after subcutaneous administration. The following applies: sc.

By ED50 is commonly meant the dose that gives a 50% effect, or the effect in half of the subjects. Turning to `CN(C)CCO[C@@H](c1ccccc1)c1ccnn1C`, the ED50 was determined as 67 mg/kg in assay [1], 28 mg/kg in assay [2] and 127 mg/kg in assay [3].
For `CN(C)CCO[C@H](c1ccccc1)c1ccnn1C`, the median effective dose (ED50) amounted to 37 mg/kg in assay [1], 13 mg/kg in assay [2] and 21 mg/kg in assay [3].
As for `CN(C)CCOC(c1ccccc1)c1ccnn1C` (racemic) [CIZOLIRTINE], the ED50 in assay [1] turned out to be 56 mg/kg; in assay [2] it was 16 mg/kg; in assay [3], 70 mg/kg.
In turn, `O=C([O-])Cc1ccccc1Nc1c(Cl)cccc1Cl.[Na+]` [DICLOFENAC SODIUM] had an ED50 in assay [1] of 87 mg/kg.
